These compounds were tested against PD-1/PD-L1 (Homo sapiens, UniProt Q9NZQ7) (assay: TR-FRET PD-1/PD-L1 binding inhibition at the molecular level (free proteins)). Settings: Tag1-PD-L1 and Tag2-PD-1 proteins, twelve concentrations from 200 nM, 2 hours at room temperature, read-out: FRET assay (IC50).
PD-1/PD-L1, sequence (Q9NZQ7 19-238 limits assumed): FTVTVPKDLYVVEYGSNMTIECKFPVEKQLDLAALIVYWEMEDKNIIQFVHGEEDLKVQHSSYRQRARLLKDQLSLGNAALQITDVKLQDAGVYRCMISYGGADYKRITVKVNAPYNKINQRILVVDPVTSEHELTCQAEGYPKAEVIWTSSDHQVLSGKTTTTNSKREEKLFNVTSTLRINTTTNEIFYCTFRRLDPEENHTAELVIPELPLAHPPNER
How it was run: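 HTRF read-out at 665/620 nm after 2 h at room temperature. Detection used anti-Tag1 Eu cryptate plus anti-Tag2 XL665 antibodies. Tagged PD-L1 and PD-1 proteins were pre-mixed with compound across twelve […] 1:2 dilutions starting at 200 nM.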
For `Cc1c(NC(=O)c2cc3n(n2)CCCC3NCC(=O)O)cccc1-c1cccc(NC(=O)c2nc3c(s2)CN(C)CC3)c1C` (stereo not shown) [Compound 149, 2-((2-((2,2'-dimethyl-3'-(5-methyl-4,5,6,7-tetrahydrothiazolo[5,4-c]pyridine-2-carboxamido)-[1,1'-biphenyl]-3-yl)carbamoyl)-4,5,6,7-tetrahydropyrazolo[1,5-a]pyridin-4-yl)amino)acetic acid], the IC50 was under 10 nM. Work on `Cc1c(NC(=O)c2cc3n(n2)CCCC3N2CC[C@@H](O)C2)cccc1-c1cccc(NC(=O)c2nc3c(s2)CN(C)CC3)c1C` (stereo partly drawn) [Compound 150, N-(3'-(4-((R)-3-hydroxypyrrolidin-1-yl)-4,5,6,7-tetrahydropyrazolo[1,5-a]pyridine-2-carboxamido)-2,2'-dimethyl-[1,1'-biphenyl]-3-yl)-5-methyl-4,5,6,7-tetrahydrothiazolo[5,4-c]pyridine-2-carboxamide] yielded an IC50 of under 10 nM. Compound `O=C(Nc1cccc(-c2cccc(NC(=O)c3nc4c(s3)CN(CCF)CC4)c2Cl)c1Cl)c1cc2n(n1)CCCC2NCCO` (stereo not shown) [Compound 150-1, N-(2,2'-dichloro-3'-(4-((2-hydroxyethyl)amino)-4,5,6,7-tetrahydropyrazolo[1,5-a]pyridine-2-carboxamido)-[1,1'-biphenyl]-3-yl)-5-(2-fluoroethyl)-4,5,6,7-tetrahydrothiazolo[5,4-c]pyridine-2-carboxamide] has an IC50 of under 10 nM. `O=C(O)CNC1CCCn2nc(C(=O)Nc3cccc(-c4cccc(NC(=O)c5nc6c(s5)CN(CCF)CC6)c4Cl)c3Cl)cc21` (stereo not shown) [Compound 150-2, 2-((2-((2,2'-dichloro-3'-(5-(2-fluoroethyl)-4,5,6,7-tetrahydrothiazolo[5,4-c]pyridine-2-carboxamido)-[1,1'-biphenyl]-3-yl)carbamoyl)-4,5,6,7-tetrahydropyrazolo[1,5-a]pyridin-4-yl)amino)acetic acid] gave an IC50 of under 10 nM. `CC(=O)NCCNC1CCCn2nc(C(=O)Nc3cccc(-c4cccc(-c5nc6c(s5)CCN(C)C6)c4C)c3C)cc21` (stereo not shown) [Compound 152, 4-((2-acetamidoethyl)amino)-N-(2,2'-dimethyl-3'-(5-methyl-4,5,6,7-tetrahydrothiazolo[4,5-c]pyridin-2-yl)-[1,1'-biphenyl]-3-yl)-4,5,6,7-tetrahydropyrazolo[1,5-a]pyridine-2-carboxamide] was tested, and the IC50 was 10 to 100 nM. Work on `Cc1c(NC(=O)c2cc3n(n2)CCCC3NCC(=O)O)cccc1-c1cccc(-c2nc3c(s2)CCN(C)C3)c1C` (stereo not shown) [Compound 153, 2-((2-((2,2'-dimethyl-3'-(5-methyl-4,5,6,7-tetrahydrothiazolo[4,5-c]pyridin-2-yl)-[1,1'-biphenyl]-3-yl)carbamoyl)-4,5,6,7-tetrahydropyrazolo[1,5-a]pyridin-4-yl)amino)acetic acid] yielded an IC50 of under 10 nM. In the case of `Cc1c(NC(=O)c2cc3n(n2)CCCC3N2CC[C@@H](O)C2)cccc1-c1cccc(-c2nc3c(s2)CCN(C)C3)c1C` (stereo partly drawn) [Compound 154, N-(2,2'-dimethyl-3'-(5-methyl-4,5,6,7-tetrahydrothiazolo[4,5-c]pyridin-2-yl)-[1,1'-biphenyl]-3-yl)-4-((R)-3-hydroxypyrrolidin-1-yl)-4,5,6,7-tetrahydropyrazolo[1,5-a]pyridine-2-carboxamide], the IC50 is reported as 10 to 100 nM. Work on `Cc1c(-c2cc3n(n2)CCCC3N2CCC(O)C2)cccc1-c1cccc(-c2cc3n(n2)CCCC3N2CCC(O)C2)c1C` [Compound 156, (3R,3'R)-1,1'-(2,2'-(2,2'-dimethyl-[1,1'-biphenyl]-3,3'-diyl)bis(4,5,6,7-tetrahydropyrazolo[1,5-a]pyridine-4,2-diyl))bis(pyrrolidin-3-ol)] yielded an IC50 of 100 to 1000 nM. Work on `Cc1c(-c2cc3n(n2)CCCC3NCCO)cccc1-c1cccc(-c2cc3n(n2)CCCC3N2CC[C@@H](O)C2)c1C` (stereo partly drawn) [Compound 157, (3R)-1-(2-(3'-(4-((2-hydroxyethyl)amino)-4,5,6,7-tetrahydropyrazolo[1,5-a]pyridin-2-yl)-2,2'-dimethyl-[1,1'-biphenyl]-3-yl)-4,5,6,7-tetrahydropyrazolo[1,5-a]pyridin-4-yl)pyrrolidin-3-ol] yielded an IC50 of over 1000 nM. Work on `Cc1c(NC(=O)c2cc3n(n2)CCCC3NCCO)cccc1-c1cccc(-c2cc3n(n2)CCCC3NCCO)c1C` (stereo not shown) [Compound 158, 4-((2-hydroxyethyl)amino)-N-(3'-(4-((2-hydroxyethyl)amino)-4,5,6,7-tetrahydropyrazolo[1,5-a]pyridin-2-yl)-2,2'-dimethyl-[1,1'-biphenyl]-3-yl)-4,5,6,7-tetrahydropyrazolo[1,5-a]pyridine-2-carboxamide] yielded an IC50 of 10 to 100 nM. With `Cc1c(NC(=O)c2cc3n(n2)CCCC3NCCO)cccc1-c1cccc(-c2cc3n(n2)CCCC3N2CC[C@@H](O)C2)c1C` (stereo partly drawn) [Compound 159, 4-((2-hydroxyethyl)amino)-N-(3'-(4-((R)-3-hydroxypyrrolidin-1-yl)-4,5,6,7-tetrahydropyrazolo[1,5-a]pyridin-2-yl)-2,2'-dimethyl-[1,1'-biphenyl]-3-yl)-4,5,6,7-tetrahydropyrazolo[1,5-a]pyridine-2-carboxamide] the IC50 was 10 to 100 nM. `Cc1c(NC(=O)c2cc3n(n2)CCCC3N2CC[C@@H](O)C2)cccc1-c1cccc(-c2cc3n(n2)CCCC3NCCO)c1C` (stereo partly drawn) [Compound 160, N-(3'-(4-((2-hydroxyethyl)amino)-4,5,6,7-tetrahydropyrazolo[1,5-a]pyridin-2-yl)-2,2'-dimethyl-[1,1'-biphenyl]-3-yl)-4-((R)-3-hydroxypyrrolidin-1-yl)-4,5,6,7-tetrahydropyrazolo[1,5-a]pyridine-2-carboxamide] was tested, and the IC50 was 10 to 100 nM. `Cc1c(NC(=O)c2cc3n(n2)CCCC3N2CC[C@@H](O)C2)cccc1-c1cccc(-c2cc3n(n2)CCCC3N2CC[C@@H](O)C2)c1C` (stereo partly drawn) [Compound 161, 4-((R)-3-hydroxypyrrolidin-1-yl)-N-(3'-(4-((R)-3-hydroxypyrrolidin-1-yl)-4,5,6,7-tetrahydropyrazolo[1,5-a]pyridin-2-yl)-2,2'-dimethyl-[1,1'-biphenyl]-3-yl)-4,5,6,7-tetrahydropyrazolo[1,5-a]pyridine-2-carboxamide] was tested, and the IC50 was 10 to 100 nM. `COc1nc(-c2cccc(-c3cccc(-c4cc5n(n4)CCCC5NCCO)c3C)c2C)cnc1CNC[C@@H]1CCC(=O)N1` (stereo partly drawn) [Compound 162, (5S)-5-((((5-(3'-(4-((2-hydroxyethyl)amino)-4,5,6,7-tetrahydropyrazolo[1,5-a]pyridin-2-yl)-2,2'-dimethyl-[1,1'-biphenyl]-3-yl)-3-methoxypyrazin-2-yl)methyl)amino)methyl)pyrrolidin-2-one] showed an IC50 of 10 to 100 nM. In the case of `COc1nc(-c2cccc(-c3cccc(-c4cc5n(n4)CCCC5NCC(=O)O)c3C)c2C)cnc1CNC[C@@H]1CCC(=O)N1` (stereo partly drawn) [Compound 163, 2-((2-(3'-(6-methoxy-5-(((((S)-5-oxopyrrolidin-2-yl)methyl)amino)methyl)pyrazin-2-yl)-2,2'-dimethyl-[1,1'-biphenyl]-3-yl)-4,5,6,7-tetrahydropyrazolo[1,5-a]pyridin-4-yl)amino)acetic acid], the IC50 is reported as 10 to 100 nM. With `COc1nc(-c2cccc(-c3cccc(-c4cc5n(n4)CCCC5N4CC[C@@H](O)C4)c3C)c2C)cnc1CNC[C@@H]1CCC(=O)N1` (stereo partly drawn) [Compound 164, (5S)-5-((((5-(3'-(4-((R)-3-hydroxypyrrolidin-1-yl)-4,5,6,7-tetrahydropyrazolo[1,5-a]pyridin-2-yl)-2,2'-dimethyl-[1,1'-biphenyl]-3-yl)-3-methoxypyrazin-2-yl)methyl)amino)methyl)pyrrolidin-2-one] the IC50 was 10 to 100 nM. Compound `COc1nc(-c2cccc(-c3cccc(-c4cc5n(n4)CCCC5N4CC[C@@H](C(=O)O)C4)c3C)c2C)cnc1CNC[C@@H]1CCC(=O)N1` (stereo partly drawn) [Compound 165, (3R)-1-(2-(3'-(6-methoxy-5-(((((S)-5-oxopyrrolidin-2-yl)methyl)amino)methyl)pyrazin-2-yl)-2,2'-dimethyl-[1,1'-biphenyl]-3-yl)-4,5,6,7-tetrahydropyrazolo[1,5-a]pyridin-4-yl)pyrrolidine-3-carboxylic acid] has an IC50 of under 10 nM. Compound `COc1nc(-c2cccc(-c3cccc(-c4cc5n(n4)CCCC5N4CCC(O)CC4)c3C)c2C)cnc1CNC[C@@H]1CCC(=O)N1` (stereo partly drawn) [Compound 166, (5S)-5-((((5-(3'-(4-(4-hydroxypiperidin-1-yl)-4,5,6,7-tetrahydropyrazolo[1,5-a]pyridin-2-yl)-2,2'-dimethyl-[1,1'-biphenyl]-3-yl)-3-methoxypyrazin-2-yl)methyl)amino)methyl)pyrrolidin-2-one] has an IC50 of 10 to 100 nM. Work on `COc1nc(-c2cccc(-c3cccc(-c4cc5n(n4)CCCC5N4CCC(C(=O)O)CC4)c3C)c2C)cnc1CNC[C@@H]1CCC(=O)N1` (stereo partly drawn) [Compound 167, 1-(2-(3'-(6-methoxy-5-(((((S)-5-oxopyrrolidin-2-yl)methyl)amino)methyl)pyrazin-2-yl)-2,2'-dimethyl-[1,1'-biphenyl]-3-yl)-4,5,6,7-tetrahydropyrazolo[1,5-a]pyridin-4-yl)piperidine-4-carboxylic acid] yielded an IC50 of 10 to 100 nM. For `COc1nc(-c2cccc(-c3cccc(-c4cc5n(n4)CCCC5NCCO)c3Cl)c2Cl)cnc1CNC[C@@H]1CCC(=O)N1` (stereo partly drawn) [Compound 168, (5S)-5-((((5-(2,2'-dichloro-3'-(4-((2-hydroxyethyl)amino)-4,5,6,7-tetrahydropyrazolo[1,5-a]pyridin-2-yl)-[1,1'-biphenyl]-3-yl)-3-methoxypyrazin-2-yl)methyl)amino)methyl)pyrrolidin-2-one], the IC50 was under 10 nM. `COc1nc(-c2cccc(-c3cccc(-c4cc5n(n4)CCCC5NCC(=O)O)c3Cl)c2Cl)cnc1CNC[C@@H]1CCC(=O)N1` (stereo partly drawn) [Compound 169, 2-((2-(2,2'-dichloro-3'-(6-methoxy-5-(((((S)-5-oxopyrrolidin-2-yl)methyl)amino)methyl)pyrazin-2-yl)-[1,1'-biphenyl]-3-yl)-4,5,6,7-tetrahydropyrazolo[1,5-a]pyridin-4-yl)amino)acetic acid] was tested, and the IC50 was under 10 nM. `COc1nc(-c2cccc(-c3cccc(-c4cc5n(n4)CCCC5N4CC[C@@H](O)C4)c3Cl)c2Cl)cnc1CNC[C@@H]1CCC(=O)N1` (stereo partly drawn) [Compound 170, (5S)-5-((((5-(2,2'-dichloro-3'-(4-((R)-3-hydroxypyrrolidin-1-yl)-4,5,6,7-tetrahydropyrazolo[1,5-a]pyridin-2-yl)-[1,1'-biphenyl]-3-yl)-3-methoxypyrazin-2-yl)methyl)amino)methyl)pyrrolidin-2-one] gave an IC50 of 10 to 100 nM.

Source: patent EP4755888A1 (ILAb Co., Ltd., priority 2023, dated 2025)
